# Measured values: patent US11752122B2 (OKLAHOMA MEDICAL RESEARCH FOUNDATION, priority 2018, dated 2023)
# “Also recorded” adds a separate entry of the source.
# How the values were obtained:
# [1] = system: TGF-β1platelet-KO-LDLR mice on HFD; assay: Aortic stenosis progression in TGF-β1platelet-KO-LDLR mice on HFD, echocardiography; format: in vivo; details: TGF-β1platelet-KO-LDLR mice on HFD treated with NAC
# Source text: Mice. Hypercholesterolemic mice deficient for low-density lipoprotein receptors (Ldlr−/−), which only express ApoB-100 (Ldlr−/−Apob100/100, LDLR), were obtained from Jackson Laboratories (B6; 129SLdlrtm1HerApobtm2Sgy/J, stock no. 003000). WT C57bl/6 mice were also obtained from the Jackson Laboratory (stock no. 000664) and served as controls. TGF-β1^platelet-KO-LDLR mice (Pf4Cre+Tgfb1f/f;Ldlr−/−Apob100/100;) and TGF-β1^flox-LDLR littermate controls (Tgfb1f/f;Ldlr−/−Apob100/100) were generated by crossing LDLR mice with Pf4Cre+;Tgfb1f/f mice, as shown in FIGS. 7A-B and Supplemental Table 5. […]
# Experimental Design. […] Progression and severity (mild/moderate/severe) of AS were monitored at 0, 3, 6 and 9 months by echocardiography using non-invasive ultrasound imaging techniques. […]
# Echocardiography. […] Electrode gel was used to enhance the physiologic readings. To ensure accuracy of all echo measurements, physiological parameters were monitored and recordings were only taken if the heart rate was 430-550 beats per minute, respiration was 20-100 breaths per minute, and body temperature was close to 37° C. […]
# Measurement of AS parameters using a modified view of ultrasound imaging. […] LVOT was measured from the long-axis view and was used to calculate AV pressure and normalize the cusp separation (Lindman et al., 2016; Meyer et al., 2012). […]
# [2] = system: aortic valves of LDLR mice on HFD; assay: Histology and immunohistochemical staining of aortic valves of LDLR mice on HFD; format: in vivo; details: LDLR mice at 6 months on HFD, NAC 3-5 and 5-6 months combined, vs untreated
# Procedure: Histology and immunofluorescent staining of aortic valve sections. Mice receiving HFD were euthanized at 6 months and perfused with PBS. Hearts with their attached ascending aorta were excised, fixed in 4% paraformaldehyde for 24 hours and processed for routine paraffin embedding. Tissues were cut in 5 μm thick sections in the middle of the heart to get maximum valve thickness (FIG. 12) and stained with picrosirius red for collagen. For immunofluorescent staining, tissue sections were deparaffinized and rehydrated by immersing in xylene and a series of graded alcohols, followed by heat (97° C.)-induced epitope retrieval using Tris-EDTA buffer, pH 9.0 for 30 minutes. Slides were incubated for 1 hour at RT with blocking buffer (1% BSA+0.3M glycine in Tris-NaCl-Tween buffer) and then incubated overnight at 4° C. with primary antibodies at final concentrations of 0.5 μg/ml. After washing in wash buffer (Tris-NaCl-Tween) and incubation with a fluorescent secondary antibody at RT for 2 hours, slides were washed with wash buffer three times and mounted with a fluorescence mounting medium containing diamidino-2-phenylindole (DAPI) to stain nuclei.
# Images were photographed using Ziess 710 Confocal or Nikon eclipse 80i fluorescence microscope. Positively-stained areas and total valve areas in immunohistochemical and histological images were quantified as shown in FIG. 13. Primary antibodies used were anti-phospho-Smad2 (Ser465/467) (AB3849, Millipore), anti-vimentin (ab92547, Abcam), anti-α-SMA (904601, Biolegend), Isolectin B4 (121411, Life Technologies), anti-CD41 (14-0411, eBioscience), anti-CD62P (148301, Biolegend), and anti-collagen (SAB1402151, Sigma). Species-matched secondary antibodies conjugated to Alexa 488, Alexa 594, or Alexa 647 were used. Histology images were analyzed and quantified using ImageJ (NIH).
structure (smiles),measurement,setting,value
"CC(=O)N[C@@H](CS)C(=O)O [NAC, N-acetylcysteine]",AS progression,[1],little to no further reduction; also recorded: did not show any effect
same,aortic valve area,[2],reduced
same,fibrosis in aortic valves,[2],reduced
same,p-Smad2 staining in aortic valves,[2],reduced
